Laboratory results: article PMC10269561, “Absence of Clinically Meaningful Drug-Drug Interactions with Rezafungin: Outcome of Investigations” (Microbiology Spectrum, 2023)
Numbered stars: 1 amine (or outer) side, 2 acyl side, 3 side chain; on linkers, the order of the positions; unused ones are H or OH. Bridge positions count the residues as written; N and C are the ends. Square brackets hold non-standard residues; d marks the D form. Peptide text beside a SMILES is read from it. * marks the point of attachment. Orn(4R-OH,5R-OCH2CH2NMe3+) = C[N+](C)(C)CCO[C@@H](N[*:3])[C@H](O)C[C@H](N[*:1])C(=O)[*:2]; pTerphenylCO(4''-OnC5H11) = CCCCCOc1ccc(-c2ccc(-c3ccc(C(=O)*)cc3)cc2)cc1; hTyr(3S-OH,4S-OH) = N[C@H](C(=O)O)[C@H](O)[C@@H](O)c1ccc(O)cc1; Pro(3S-OH,4S-Me) = C[C@H]1CN[C@H](C(=O)O)[C@H]1O; Hyp = O=C(O)[C@@H]1C[C@@H](O)CN1

What was measured:
Type in all cases: in vitro ADME
[1] = target: CYP2B6 (Homo sapiens, UniProt P20813); experiment: NC-012 CYP450 inhibition screening, recombinant CYP2B6; settings: 10 μM, fluorogenic substrate, recombinant human CYP
Sequence of CYP2B6 (P20813 whole entry): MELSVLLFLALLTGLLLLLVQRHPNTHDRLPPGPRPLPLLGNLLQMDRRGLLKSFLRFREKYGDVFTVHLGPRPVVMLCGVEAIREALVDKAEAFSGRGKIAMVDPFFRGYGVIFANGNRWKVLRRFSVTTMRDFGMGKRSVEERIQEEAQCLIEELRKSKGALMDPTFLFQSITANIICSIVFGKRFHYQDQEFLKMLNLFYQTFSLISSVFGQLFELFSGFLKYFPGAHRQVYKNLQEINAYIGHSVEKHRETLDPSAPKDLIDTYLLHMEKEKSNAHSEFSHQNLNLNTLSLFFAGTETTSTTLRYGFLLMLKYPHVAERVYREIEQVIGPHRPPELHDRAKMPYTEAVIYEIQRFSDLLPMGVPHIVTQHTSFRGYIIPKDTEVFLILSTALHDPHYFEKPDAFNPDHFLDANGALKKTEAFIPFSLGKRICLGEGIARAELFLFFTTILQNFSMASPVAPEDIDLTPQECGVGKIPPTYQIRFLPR
Text: (§1) Microbiology Spectrum Supplementary materials
(§2) Table S 4Summary of initial in vitro assessments […]
(§3) whether rezafungin can induce CYP isoforms 1A2, 2B6, or 3A4. mRNA expression) of CYP1A2 and CYP2B6, and, in the case of […]
(§4) Abbreviations: ABC = ATP binding cassette; BCRP = breast cancer resistance protein; BSEP = bile salt export pump; CYP = cytochrome P450; MATE = multidrug and toxic compound extrusion; MDCK = Madin-Darby canine kidney; MDR = multidrug resistance protein; mRNA = messenger ribonucleic acid; OAT = organic anion transporter; OATP = organic anion transporter protein; OCT – organic cation transporter; OCTN = organic cation transporter novel; P-gp = P-glycoprotein; SLC = solute carrier.

[2] = target: T1, BCRP (Homo sapiens, UniProt Q9UNQ0); experiment: NC-049 BCRP substrate potential in Caco-2 monolayers; settings: with/without inhibitors
T1 sequence (Q9UNQ0 whole entry): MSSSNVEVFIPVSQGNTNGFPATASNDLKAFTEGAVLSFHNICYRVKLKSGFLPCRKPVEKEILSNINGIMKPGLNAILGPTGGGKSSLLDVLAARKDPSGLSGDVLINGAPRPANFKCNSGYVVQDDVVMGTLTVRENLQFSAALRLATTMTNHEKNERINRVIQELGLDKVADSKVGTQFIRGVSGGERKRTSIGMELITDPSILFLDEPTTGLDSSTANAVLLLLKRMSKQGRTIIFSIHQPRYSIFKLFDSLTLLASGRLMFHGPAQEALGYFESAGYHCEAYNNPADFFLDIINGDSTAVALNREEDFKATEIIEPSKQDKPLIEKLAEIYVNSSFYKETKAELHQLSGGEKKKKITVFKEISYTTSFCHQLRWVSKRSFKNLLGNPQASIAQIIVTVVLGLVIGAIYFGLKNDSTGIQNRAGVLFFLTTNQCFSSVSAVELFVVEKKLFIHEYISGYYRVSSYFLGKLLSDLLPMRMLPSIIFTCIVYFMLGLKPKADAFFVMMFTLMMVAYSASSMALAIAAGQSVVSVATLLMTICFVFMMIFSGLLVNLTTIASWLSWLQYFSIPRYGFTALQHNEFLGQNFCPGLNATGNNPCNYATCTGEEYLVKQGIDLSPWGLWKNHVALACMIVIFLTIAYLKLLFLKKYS
Text: as §1, §2, §3, §4

[3] = target: MRP2 (Homo sapiens, UniProt Q92887); experiment: NC-160 substrate interaction, MRP2; settings: efflux (ABC) transporter
Sequence of MRP2 (Q92887 whole entry): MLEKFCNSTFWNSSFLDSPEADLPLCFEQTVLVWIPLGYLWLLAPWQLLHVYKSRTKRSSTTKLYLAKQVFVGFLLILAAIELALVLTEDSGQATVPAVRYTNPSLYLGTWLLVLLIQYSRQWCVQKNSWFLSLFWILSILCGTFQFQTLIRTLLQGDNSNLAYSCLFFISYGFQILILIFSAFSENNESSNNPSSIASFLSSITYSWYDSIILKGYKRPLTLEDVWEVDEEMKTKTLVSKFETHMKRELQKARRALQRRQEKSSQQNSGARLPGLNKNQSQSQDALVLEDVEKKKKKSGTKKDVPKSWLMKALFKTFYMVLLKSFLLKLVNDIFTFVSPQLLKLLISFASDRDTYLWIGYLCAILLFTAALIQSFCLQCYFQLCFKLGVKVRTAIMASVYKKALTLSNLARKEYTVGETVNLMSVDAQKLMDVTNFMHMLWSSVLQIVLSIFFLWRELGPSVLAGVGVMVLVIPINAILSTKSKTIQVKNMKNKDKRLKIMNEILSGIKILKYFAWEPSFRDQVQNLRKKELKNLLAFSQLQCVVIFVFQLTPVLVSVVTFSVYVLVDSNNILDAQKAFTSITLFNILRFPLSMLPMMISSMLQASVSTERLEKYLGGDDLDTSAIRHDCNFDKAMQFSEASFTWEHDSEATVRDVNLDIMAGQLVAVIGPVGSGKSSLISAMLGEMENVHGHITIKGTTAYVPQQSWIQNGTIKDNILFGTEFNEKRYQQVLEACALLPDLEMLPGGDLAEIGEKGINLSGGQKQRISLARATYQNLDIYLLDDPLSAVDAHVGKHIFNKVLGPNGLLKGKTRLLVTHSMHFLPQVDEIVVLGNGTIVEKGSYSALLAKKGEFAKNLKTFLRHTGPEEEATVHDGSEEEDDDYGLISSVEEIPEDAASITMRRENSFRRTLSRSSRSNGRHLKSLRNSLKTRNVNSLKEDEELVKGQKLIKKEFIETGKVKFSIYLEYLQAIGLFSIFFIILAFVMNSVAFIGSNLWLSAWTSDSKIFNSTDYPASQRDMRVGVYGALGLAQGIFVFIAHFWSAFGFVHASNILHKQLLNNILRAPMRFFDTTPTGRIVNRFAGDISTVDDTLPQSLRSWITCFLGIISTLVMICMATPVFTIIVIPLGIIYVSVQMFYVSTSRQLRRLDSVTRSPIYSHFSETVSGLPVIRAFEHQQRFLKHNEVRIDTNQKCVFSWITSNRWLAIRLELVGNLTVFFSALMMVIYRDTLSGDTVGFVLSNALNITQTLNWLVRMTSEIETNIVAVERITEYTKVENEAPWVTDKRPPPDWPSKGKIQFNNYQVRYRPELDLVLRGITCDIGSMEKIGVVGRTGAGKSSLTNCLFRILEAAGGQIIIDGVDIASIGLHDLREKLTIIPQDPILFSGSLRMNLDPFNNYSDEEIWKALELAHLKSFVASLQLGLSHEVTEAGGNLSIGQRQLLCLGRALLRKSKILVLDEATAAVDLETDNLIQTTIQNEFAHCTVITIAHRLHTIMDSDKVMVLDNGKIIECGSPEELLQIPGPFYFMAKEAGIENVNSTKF
Text: as §1, §2, §3, §4

[4] = target: human OATP1B1 (Homo sapiens, UniProt Q9Y6L6); experiment: NC-052 OATP1B1 substrate study in transiently transfected HEK293 cells
Sequence of human OATP1B1 (Q9Y6L6 whole entry): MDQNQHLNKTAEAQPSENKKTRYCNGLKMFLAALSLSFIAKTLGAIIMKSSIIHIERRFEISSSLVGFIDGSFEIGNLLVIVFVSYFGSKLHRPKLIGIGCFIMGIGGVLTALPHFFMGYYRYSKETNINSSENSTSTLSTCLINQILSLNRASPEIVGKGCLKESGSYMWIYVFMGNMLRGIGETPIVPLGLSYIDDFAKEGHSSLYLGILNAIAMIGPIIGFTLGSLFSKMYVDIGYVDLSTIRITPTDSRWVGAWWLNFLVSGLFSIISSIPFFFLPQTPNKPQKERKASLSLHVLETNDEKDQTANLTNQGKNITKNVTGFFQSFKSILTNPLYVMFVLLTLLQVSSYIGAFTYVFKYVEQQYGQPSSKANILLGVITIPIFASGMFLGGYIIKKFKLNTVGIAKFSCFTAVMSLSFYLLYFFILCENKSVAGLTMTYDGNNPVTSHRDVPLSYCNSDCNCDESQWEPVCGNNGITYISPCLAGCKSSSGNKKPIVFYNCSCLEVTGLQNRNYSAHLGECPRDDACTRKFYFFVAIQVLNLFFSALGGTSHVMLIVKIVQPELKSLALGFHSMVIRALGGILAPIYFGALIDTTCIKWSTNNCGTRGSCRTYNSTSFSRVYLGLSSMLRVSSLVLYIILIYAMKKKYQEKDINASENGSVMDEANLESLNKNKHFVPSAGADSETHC
Text: as §1, §2, §3, §4

[5] = target: CYP1A2 (Homo sapiens, UniProt P05177); experiment: NC-012 CYP450 inhibition screening, recombinant CYP1A2; settings: 10 μM, fluorogenic substrate, recombinant human CYP
Text: as §1, §2, §3, §4

[6] = target: T2, CYP2D6 (Homo sapiens, UniProt P10635); experiment: NC-012 CYP450 inhibition screening, recombinant CYP2D6; settings: 10 μM, fluorogenic substrate, recombinant human CYP
T2 sequence (P10635 whole entry): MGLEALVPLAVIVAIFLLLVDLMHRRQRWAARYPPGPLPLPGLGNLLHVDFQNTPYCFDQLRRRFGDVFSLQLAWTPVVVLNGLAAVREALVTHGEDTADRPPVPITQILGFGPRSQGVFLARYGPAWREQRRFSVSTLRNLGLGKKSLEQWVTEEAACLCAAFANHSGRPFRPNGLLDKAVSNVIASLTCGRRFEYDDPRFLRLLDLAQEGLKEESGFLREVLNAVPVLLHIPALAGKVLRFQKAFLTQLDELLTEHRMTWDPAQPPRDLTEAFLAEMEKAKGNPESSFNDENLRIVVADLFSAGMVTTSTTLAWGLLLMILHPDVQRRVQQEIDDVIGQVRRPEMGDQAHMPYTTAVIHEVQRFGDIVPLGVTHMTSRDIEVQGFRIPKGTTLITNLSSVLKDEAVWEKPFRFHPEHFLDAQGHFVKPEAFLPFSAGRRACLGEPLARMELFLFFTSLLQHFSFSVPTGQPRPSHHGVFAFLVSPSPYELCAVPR
Text: as §1, §2, §3, §4

[7] = target: T2, CYP2D6; experiment: NC-153 time-dependent inhibition in human liver microsomes, CYP2D6; settings: 0.1 to 25 μM
Text: as §1, §2, §3, §4

[8] = target: T1, BCRP; experiment: NC-160 substrate interaction, BCRP; settings: efflux (ABC) transporter
Text: as §1, §2, §3, §4

[9] = target: T3, CYP2C8 (Homo sapiens, UniProt P10632); experiment: NC-012 CYP450 inhibition screening, recombinant CYP2C8; settings: fluorogenic substrate, recombinant human CYP
T3 sequence (P10632 1-490): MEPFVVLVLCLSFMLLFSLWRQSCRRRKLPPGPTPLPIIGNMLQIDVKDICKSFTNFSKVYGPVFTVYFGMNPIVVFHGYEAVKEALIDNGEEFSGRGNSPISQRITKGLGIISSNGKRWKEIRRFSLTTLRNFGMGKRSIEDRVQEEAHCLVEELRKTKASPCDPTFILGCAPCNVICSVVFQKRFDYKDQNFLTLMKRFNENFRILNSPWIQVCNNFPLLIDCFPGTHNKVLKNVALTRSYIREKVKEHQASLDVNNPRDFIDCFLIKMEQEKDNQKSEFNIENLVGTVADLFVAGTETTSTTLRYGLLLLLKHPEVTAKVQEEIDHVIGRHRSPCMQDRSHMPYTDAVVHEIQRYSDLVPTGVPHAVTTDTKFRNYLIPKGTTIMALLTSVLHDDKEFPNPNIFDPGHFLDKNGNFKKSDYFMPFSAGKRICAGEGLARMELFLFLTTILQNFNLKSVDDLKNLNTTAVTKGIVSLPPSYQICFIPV
Text: as §1, §2, §3, §4

[10] = target: T4, OCT1 (Homo sapiens, UniProt O15245); experiment: NC-160 substrate interaction, OCT1; settings: uptake SLC transporter
T4 sequence (O15245 1-554): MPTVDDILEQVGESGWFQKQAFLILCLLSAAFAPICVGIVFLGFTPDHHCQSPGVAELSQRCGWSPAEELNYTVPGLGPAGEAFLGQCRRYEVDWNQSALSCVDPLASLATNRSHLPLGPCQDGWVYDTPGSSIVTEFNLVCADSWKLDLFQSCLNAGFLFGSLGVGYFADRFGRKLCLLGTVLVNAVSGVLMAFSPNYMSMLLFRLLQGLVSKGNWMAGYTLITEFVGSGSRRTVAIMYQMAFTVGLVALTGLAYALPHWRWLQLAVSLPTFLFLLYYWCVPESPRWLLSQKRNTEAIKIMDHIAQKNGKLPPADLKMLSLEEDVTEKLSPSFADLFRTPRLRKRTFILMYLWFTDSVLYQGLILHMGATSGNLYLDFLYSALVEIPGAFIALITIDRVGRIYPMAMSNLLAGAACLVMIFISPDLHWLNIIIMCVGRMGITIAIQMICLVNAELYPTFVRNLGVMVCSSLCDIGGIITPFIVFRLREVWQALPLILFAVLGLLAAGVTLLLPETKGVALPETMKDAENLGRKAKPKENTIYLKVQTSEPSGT
Text: as §1, §2, §3, §4

[11] = target: T5, human OATP1B3 (Homo sapiens, UniProt Q9NPD5); experiment: NC-152 transporter inhibition, OATP1B3
T5 sequence (Q9NPD5 whole entry): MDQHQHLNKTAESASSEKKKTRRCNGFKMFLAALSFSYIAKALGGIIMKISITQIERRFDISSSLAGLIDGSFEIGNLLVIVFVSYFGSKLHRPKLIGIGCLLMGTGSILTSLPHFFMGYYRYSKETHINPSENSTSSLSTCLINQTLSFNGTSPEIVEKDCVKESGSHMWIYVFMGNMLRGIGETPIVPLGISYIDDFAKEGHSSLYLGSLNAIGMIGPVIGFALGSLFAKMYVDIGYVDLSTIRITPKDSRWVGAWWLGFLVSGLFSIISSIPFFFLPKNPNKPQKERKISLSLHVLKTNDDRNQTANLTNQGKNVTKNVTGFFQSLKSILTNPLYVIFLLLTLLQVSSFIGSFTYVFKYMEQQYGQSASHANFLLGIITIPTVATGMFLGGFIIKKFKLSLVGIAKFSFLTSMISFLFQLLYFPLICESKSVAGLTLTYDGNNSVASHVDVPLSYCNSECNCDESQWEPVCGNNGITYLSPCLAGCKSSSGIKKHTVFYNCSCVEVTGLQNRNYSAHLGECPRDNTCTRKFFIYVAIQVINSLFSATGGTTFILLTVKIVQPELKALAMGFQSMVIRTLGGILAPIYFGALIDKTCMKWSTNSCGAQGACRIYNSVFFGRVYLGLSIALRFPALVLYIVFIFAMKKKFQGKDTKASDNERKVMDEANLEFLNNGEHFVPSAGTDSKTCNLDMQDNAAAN
Text: Abbreviations: ABC = ATP binding cassette; BCRP = breast cancer resistance protein; BSEP = bile salt export pump; CYP = cytochrome P450; MATE =
multidrug and toxic compound extrusion; MDCK = Madin-Darby canine kidney; MDR = multidrug resistance protein; mRNA = messenger ribonucleic acid;
OAT = organic anion transporter; OATP = organic anion transporter protein; OCT – organic cation transporter; OCTN = organic cation transporter novel; P-gp =
P-glycoprotein; SLC = solute carrier.

[12] = target: T5, human OATP1B3; experiment: NC-052 OATP1B3 substrate study in transiently transfected HEK293 cells
Text: as §1, §2, §3, §4

[13] = target: CYP2C19 (Homo sapiens, UniProt P33261); experiment: NC-153 time-dependent inhibition in human liver microsomes, CYP2C19; settings: 0.1 to 25 μM
Sequence of CYP2C19 (P33261 whole entry): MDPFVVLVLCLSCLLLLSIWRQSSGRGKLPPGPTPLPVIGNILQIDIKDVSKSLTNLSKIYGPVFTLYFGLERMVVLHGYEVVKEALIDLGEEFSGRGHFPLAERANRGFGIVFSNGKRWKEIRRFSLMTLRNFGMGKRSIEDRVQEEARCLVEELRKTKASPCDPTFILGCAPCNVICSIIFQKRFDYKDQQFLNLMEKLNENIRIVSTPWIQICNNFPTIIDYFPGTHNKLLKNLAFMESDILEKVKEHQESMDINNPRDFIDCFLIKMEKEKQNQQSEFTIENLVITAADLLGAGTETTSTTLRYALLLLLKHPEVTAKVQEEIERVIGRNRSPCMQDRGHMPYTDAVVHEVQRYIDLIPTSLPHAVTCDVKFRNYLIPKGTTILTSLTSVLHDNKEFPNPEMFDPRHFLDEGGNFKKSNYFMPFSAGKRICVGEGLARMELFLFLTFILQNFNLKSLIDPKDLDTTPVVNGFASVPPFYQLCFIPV
Text: as §1, §2, §3, §4

[14] = target: CYP2C9 (Homo sapiens, UniProt P11712); experiment: NC-012 CYP450 inhibition screening, recombinant CYP2C9; settings: 10 μM, fluorogenic substrate, recombinant human CYP
Text: as §1, §2, §3, §4

[15] = target: human MATE2-K (Homo sapiens, UniProt Q86VL8); experiment: NC-152 transporter inhibition, MATE2-K; settings: in vitro cell test system
Text: as §1, §2, §3, §4

In the case of `CCCCCOc1ccc(-c2ccc(-c3ccc(C(=O)N[C@H]4C[C@@H](O)[C@@H](OCC[N+](C)(C)C)NC(=O)[C@@H]5[C@@H](O)[C@@H](C)CN5C(=O)[C@H]([C@@H](C)O)NC(=O)[C@H]([C@H](O)[C@@H](O)c5ccc(O)cc5)NC(=O)[C@@H]5C[C@@H](O)CN5C(=O)[C@H]([C@@H](C)O)NC4=O)cc3)cc2)cc1` [Rezafungin] ({pTerphenylCO(4''-OnC5H11)}-[Orn(4R-OH,5R-OCH2CH2NMe3+)]T[Hyp][hTyr(3S-OH,4S-OH)]T[Pro(3S-OH,4S-Me)]; lactam 1-C), the “inhibition of CYP2B6” value [1] is reported as “Minimal inhibition”, the “substrate of BCRP” value [2] is reported as “not a substrate” and the “substrate of MRP2” value [3] is reported as “not a substrate”. For the same compound, the “substrate of OATP1B1” value [4] was “not to be a substrate”, the “uptake ratio, OATP1B1” value [4] was less than 2 and the “inhibition of CYP1A2” value [5] was “Minimal inhibition”. The “inhibition of CYP2D6” value [6] was “Minimal inhibition”, the “time-dependent inhibitor of CYP2D6” value [7] was “not a time-dependent inhibitor” and the “substrate of BCRP” value [8] was “not a substrate”. The inhibition at 10 µM [9] was 63%, the “substrate of OCT1” value [10] was “not a substrate” and the “inhibitor of probe substrate transport mediated via OATP1B3” value ([11]; in vitro cell test system, NC-152) was “determined to be an inhibitor”. The IC50 ([11]; initial in vitro studies, read-out: IC50, OATP-1B3 uptake transporter (moderate inhibition)) was greater than 6 µM, the “substrate of OATP1B3” value [12] was “not to be a substrate” and the “uptake ratio, OATP1B3” value [12] was less than 2. For the same compound, the “time-dependent inhibitor of CYP2C19” value [13] was “not a time-dependent inhibitor”, the “inhibition of CYP2C9” value [14] was “Minimal inhibition” and the “inhibitor of probe substrate transport mediated via MATE2-K” value [15] was “determined to be an inhibitor”.
